For assay [1] the following is noted: native polypeptide, non-covalent complex with biotin; cited from earlier work.
The test system of assay [2] is monobiotinylated Fab' antibody fragment. Put plainly: Affinity of streptavidin muteins to biotin derivatives, BIAcore system. Format: binding. The conditions noted are these: CM5 biosensor, 25° C. Here is the method:
The affinity of the streptavidin muteins to biotin derivatives (constants Kon, Koff and KA) was determined in comparison to core streptavidin (wild type streptavidin) using the BIAcore system from the Pharmacia Co. For this the respective streptavidin samples were immobilized on the surface of biosensor chips (CM5 biosensor). The surface loading was selected in such a way that a measurement signal of 500 to 2000 resonance units (rU) was generated. The association kinetics were recorded for 3 min in each case at 25° C. and with 6 concentrations (12.5, 25, 50, 100, 200 and 400 nmol/l ) of a monobiotinylated Fab' antibody fragment. In order to investigate the influence of the reverse binding of the antibody, the dissociation kinetics in the absence and presence of 10 μg/ml core streptavidin were compared. The specificity of the binding was shown by an experiment with the same body in a non-biotinylated form (negative control).
The binding constants were determined for the purified streptavidin muteins as well as for streptavidin muteins cross-linked with a polymer (streptavidin-mutein […] serum albumin conjugates, preparation: EP-A-0 092).
(Surface plasmon resonance follows binding to a sensor surface in real time, without labels.)

As for “avidin: native avidin, amino acid sequence SEQ ID NO.4”, the “binding affinity to biotin (KA)” value in assay [1] is on record as “about 10^15 l/mol”.

As for “streptavidin: native streptavidin, protein sequence SEQ ID NO.2”, the “binding affinity to biotin (KA)” value in assay [1] is listed as “about 10^15 l/mol”.

For the substance “wild-type: recombinant core streptavidin (shortened streptavidin), SEQ ID NO.16, produced per WO 93/09144”, in assay [2] (monobiotinylated Fab'), the KA is >10^10 1/mol and the Koff is given as <10^−5 1/s. The same substance gave a t/2 diss in assay [2] (monobiotinylated Fab', cell prints h) above 20 h. The Kon in assay [2] (streptavidin sample immobilized, 12.5-400 nmol/l monobiotinylated Fab') is on record as 2.2.10^5 1/mol.s.

The values above are taken from patent US6391571B1, “Recombinant inactive avidin mutants” (Roche Diagnostics GmbH, priority 1997, dated 2002).
